These are literature values, as cited in US20040006100A1, “Monotherapy for the treatment of parkinson's disease with cyclooxygenase-2 (COX 2) inhibitor(S)” (priority 2002, published 2004).

Each structure is given as a SMILES string.

With `N[C@@H](Cc1ccc(O)c(O)c1)C(=O)O` [levodopa], the “fraction of levodopa that reaches the brain” value (levodopa alone administered orally) is given as “about 1%”. Also, the “fraction of orally administered levodopa metabolized by decarboxylase and then unable to cross the BBB” value (oral administration, without carbidopa) is recorded as “Up to 99%”.
